Values quoted from earlier work as cited in US20240325452A1, “METHODS AND COMPOSITIONS FOR DREADD-ACTIVATABLE CELLS FOR NEURAL REPAIR” (Drexel University, priority 2023, published 2024).

Columns and labels:
[1] = molecular target: hM3Dq (Homo sapiens, UniProt P20309, A239G/Y149C); settings: hM3 with two point mutations
[2] = it has been reported
[3] = tested on: hM3Dq and hM4Di DREADDs; settings: marketed ligands, active in vivo

hM3Dq, sequence (P20309 whole entry Y149C/A239G): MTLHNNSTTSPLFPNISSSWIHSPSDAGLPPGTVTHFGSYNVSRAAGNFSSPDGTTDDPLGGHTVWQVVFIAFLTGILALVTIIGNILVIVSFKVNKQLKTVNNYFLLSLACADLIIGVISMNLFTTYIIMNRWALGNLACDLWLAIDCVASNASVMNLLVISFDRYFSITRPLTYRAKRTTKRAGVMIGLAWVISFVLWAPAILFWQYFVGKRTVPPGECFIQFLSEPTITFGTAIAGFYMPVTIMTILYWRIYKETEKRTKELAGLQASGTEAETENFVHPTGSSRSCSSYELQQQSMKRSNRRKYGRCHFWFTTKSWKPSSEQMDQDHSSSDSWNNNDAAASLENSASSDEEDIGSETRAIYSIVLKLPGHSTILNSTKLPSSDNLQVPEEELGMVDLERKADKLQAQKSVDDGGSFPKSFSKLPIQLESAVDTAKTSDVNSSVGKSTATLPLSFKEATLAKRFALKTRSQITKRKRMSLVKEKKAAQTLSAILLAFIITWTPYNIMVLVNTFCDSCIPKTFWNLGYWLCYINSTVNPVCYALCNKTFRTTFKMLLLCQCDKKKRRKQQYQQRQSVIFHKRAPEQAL

C[N+]1([O-])CCN(C2=Nc3cc(Cl)ccc3Nc3ccccc32)CC1 [CNO, clozapine N-oxide]
potency at mutant receptor [1]: nanomolar potency

c1ccc2c(c1)N=C(N1CCNCC1)c1ccccc1N2 [Compound 21]
bioavailability, pharmacokinetic properties and brain penetrability [2]: excellent
reverse metabolism to clozapine [2]: does not undergo reverse metabolism to clozapine

CCN1CCN(C2=Nc3cc(Cl)ccc3Nc3c(F)cccc32)CC1 [JHU37160]
potency and affinity [3]: high potency and affinity
